Assay results published in US20100240745A1, “METHOD OF TREATMENT OF INFLAMMATION IN HYPERTENSIVE PATIENTS” (NICOX S.A., priority 2009, published 2010).
Marks after values point to notes of the source that are not given here.

Experiment: 13-week double-blind, randomized clinical trial: office systolic blood pressure (SBP) in osteoarthritic patients with hypertension treated with renin-angiotensin system blockers
Type: in vivo, human
Settings: for Difference in mean changes of SBP vs naproxen 500 mg / Difference in mean changes of SBP vs placebo / mean change in systolic blood pressure (SBP) vs baseline, mean ± SE: 13-week study; for mean change in systolic blood pressure (SBP) vs baseline, mean ± SE: osteoarthritic hypertensive patients on RAS blockers alone or with a diuretic; for blood pressure elevation / BP destabilization (result in words): osteoarthritic hypertensive patients treated with at least a renin-angiotensin system blocking agent
Experimental: Effects of 4-(nitrooxy)butyl(2S)-2-(6-methoxy-2-naphthyl)propanoate (naproxcinod) and naproxen on systolic blood pressure (SBP).
The effects of two twice daily drug regimens (375 mg bid and 750 mg bid) of 4-(nitrooxy)butyl(2S)-2-(6-methoxy-2-naphthyl)propanoate (naproxcinod) on systolic blood pressure (SBP) vs. naproxen and placebo were studied in a 13-week double-blind, randomized clinical trial involving 207 osteoarthritic patients and hypertension treated with renin-angiotensin system blockers alone or in combination with a diuretic.
Patients were sequentially randomized in a 1:1:1:1 ratio using a validated remote automated system to receive for the 13-week study treatment period one of 4 treatment groups: • naproxcinod 750 mg twice daily, • naproxcinod 375 mg twice daily, • naproxen 500 mg (equimolar dose of naproxcinod 750 mg) twice daily, or • placebo twice daily.
The office SBP was measured in a standardized fashion by mercury column or aneroid device in supine position, at rest, at baseline and 2, 6, and 13 weeks after study treatment initiation. SBP measurements were to be performed 2 to 4 hours post-morning dose.
The comparability of the patients in the 4 treatment groups was determined from the demographic data and baseline BP values.

Compound: COc1ccc2cc([C@H](C)C(=O)OCCCCO[N+](=O)[O-])ccc2c1 [naproxcinod, 4-(nitrooxy)butyl(2S)-2-(6-methoxy-2-naphthyl)propanoate]
- Difference in mean changes of SBP vs naproxen 500 mg (375 mg twice daily): −4.2 mmHg
- Difference in mean changes of SBP vs placebo (375 mg twice daily): 1.9 mmHg
- mean change in systolic blood pressure (SBP) vs baseline, mean ± SE (375 mg twice daily): −2.7 ± 1.7 mmHg
- Difference in mean changes of SBP vs naproxen 500 mg (750 mg twice daily): −6.5 mmHg
- Difference in mean changes of SBP vs placebo (750 mg twice daily): −0.4* mmHg
- mean change in systolic blood pressure (SBP) vs baseline, mean ± SE (750 mg twice daily): −5.0 ± 1.7 mmHg
- blood pressure elevation / BP destabilization (result in words): less BP destabilization compared to naproxen
- blood pressure elevation / BP destabilization (result in words) (listed as 4-(nitrooxy)butyl(2S)-2-(6-methoxy-2-naphthyl)propanoate): does not induce blood pressure elevation

Compound: COc1ccc2cc([C@H](C)C(=O)O)ccc2c1 [naproxen, reference compound]
- Difference in mean changes of SBP vs placebo (500 mg twice daily): 6.1** mmHg
- mean change in systolic blood pressure (SBP) vs baseline, mean ± SE (500 mg twice daily): 1.5 ± 1.9 mmHg
